In US10766864B2, “Morphinan derivatives for the treatment of neuropathic pain” (Nektar Therapeutics, priority 2015, dated 2020):
pIC50: −log10 of the molar value. Where two headings read alike, the source gives them in different places.

What was measured:
mu opioid receptor (MOR) = mu opioid receptor (MOR) (Homo sapiens (Human), UniProt P35372); test: Competitive radioligand binding at MOR ([3H] Naloxone)
Procedure: (§1) Receptor Binding at MOR and NMDA.
(§2) Affinities of various compounds were measured in vitro using competitive radioligand binding assays. Serial dilutions of test compounds were incubated with membranes prepared from CHO-K1 cells expressing the mu opioid receptor (MOR; for opioid receptor binding) or rat forebrain membranes (for NMDA receptor binding). 2 nM [^3H] Naloxone (MOR) or 0.2 nM [^3H] MK801 (NMDA) were used as the specific, competitive radioligands. 10 uM Naloxone (MOR), or 10 uM MK801 (NMDA) was used to determine non-specific binding. Bound radioactivity was measured using a scintillation counter & IC50 values for test compounds were determined by non-linear regression analysis using a one-site competition model (Graph Pad Prizm). Due to each test compound being solubilized in a buffered system for the assay, the results presented herein reflect the free base activity.

NMDA receptor = test: Competitive radioligand binding at NMDA receptor ([3H] MK801), rat forebrain membranes; details: 0.2 nM [3H] MK801, reflects free base activity
Procedure: as §1, §2

[1] = membranes from CHO-K1 cells expressing MOR, 2 nM [3H] Naloxone, reflects free base activity, read-out: MOR IC50

Row | Compound | pIC50 (mu opioid receptor (MOR)) | pIC50 (NMDA receptor) | pIC50 (mu opioid receptor (MOR); [1])
1 | COCCOCCN1CC[C@]23CCCC[C@H]2[C@H]1Cc1ccc(Nc2nccs2)cc13 [Compound 105, N-((4bR,8aR,9R)-11-(2-(2-methoxyethoxy)ethyl)-6,7,8,8a,9,10-hexahydro-5H-9,4b-(epiminoethano)phenanthren-3-yl)thiazol-2-amine] | 6.00 to 7.00 | < 5.00 | –
2 | CN1CC[C@]23CCCC[C@H]2[C@H]1Cc1ccc(-c2cnc(N)nc2)cc13 [Compound 52, 5-(17-methylmorphinan-3-yl)pyrimidin-2-amine] | – | 5.00 to 6.00 | < 6.00
3 | COCCOCCOCCOCCOCCOc1ccc2c(c1)[C@@]13CCCC[C@H]1[C@@H](C2)N(C)CC3 [Compound 14, 17-methyl-3-(2,5,8,11,14-pentaoxahexadecan-16-yloxy)morphinan] | – | < 5.00 | < 6.00
4 | CN1CC[C@]23CCCC[C@H]2[C@H]1Cc1ccc(-c2ccncc2)cc13 [Compound 45, 17-methyl-3-(pyridin-4-yl)morphinan] | – | 5.00 to 6.00 | < 6.00
5 | COCCOCCOc1ccc(Nc2ccc3c(c2)[C@@]24CCCC[C@H]2[C@@H](C3)N(C)CC4)cn1 [Compound 58, N-{6-[2-(2-methoxyethoxy)ethoxy]pyridin-3-yl}-17-methylmorphinan-3-amine] | – | < 5.00 | 7.00 to 8.00
6 | COCCOCCOCCNc1nc2ccc3c(c2s1)[C@@]12CCCC[C@H]1[C@@H](C3)N(C)CC2 [Compound 78, (7R,7aR,11aR)—N-(2-(2-(2-methoxyethoxy)ethoxy)ethyl)-14-methyl-7,7a,8,9,10,11-hexahydro-6H-7,11a-(epiminoethano)phenanthro[3,4-d]thiazol-2-amine] | – | < 5.00 | < 6.00
7 | COCCOCCOCCOCCOCCO[C@H]1CC[C@H]2[C@H]3Cc4ccc(OC)cc4[C@@]2(CCN3C)C1 [Compound 2, (6α)-3-methoxy-17-methyl-6-(2,5,8,11,14-pentaoxahexadecan-16-yloxy)morphinan] | – | < 5.00 | < 6.00
8 | COCCOCCOCCO[C@H]1CC[C@H]2[C@H]3Cc4ccc(OC)cc4[C@@]2(CCN3C)C1 [Compound 1, (6α)-3-methoxy-6-{2-[2-(2-methoxyethoxy)ethoxy]ethoxy}-17-methylmorphinan] | – | < 5.00 | < 6.00
9 | COCCOCCN1CC[C@]23CCCC[C@H]2[C@H]1Cc1ccc(-c2ccoc2)cc13 [Compound 106, (4bR,8aR,9R)-3-(furan-3-yl)-11-(2-(2-methoxyethoxy)ethyl)-6,7,8,8a,9,10-hexahydro-5H-9,4b-(epiminoethano)phenanthrene] | 6.00 to 7.00 | < 5.00 | –
10 | COCCNc1cc2c(cc1[N+](=O)[O-])C[C@@H]1[C@@H]3CCCC[C@]23CCN1C [Compound 76, N-(2-methoxyethyl)-17-methyl-2-nitromorphinan-3-amine] | – | < 5.00 | < 6.00
11 | COCCOCCC(=O)Nc1ccc2c(c1)[C@@]13CCCC[C@H]1[C@@H](C2)N(C)CC3 [Compound 79, 3-(2-methoxyethoxy)-N-((4bR,8aR,9R)-11-methyl-6,7,8,8a,9,10-hexahydro-5H-9,4b-(epiminoethano)phenanthren-3-yl)propanamide] | – | < 5.00 | < 6.00
12 | CN1CC[C@]23CCCC[C@H]2[C@H]1Cc1ccc(NC(=O)OC(C)(C)C)cc13 [Compound 40, tert-butyl (17-methylmorphinan-3-yl)carbamate] | 6.00 to 7.00 | 5.00 to 6.00 | –
13 | COCCOCCN1CC[C@]23CC(=O)CC[C@H]2[C@H]1Cc1ccc(OC)cc13 [Compound 5, 3-methoxy-17-[2-(2-methoxyethoxy)ethyl]morphinan-6-one] | 6.00 to 7.00 | < 5.00 | –
14 | CN1CC[C@]23CCCC[C@H]2[C@H]1Cc1cc2nc[nH]c2cc13 [Compound 81, (4aR,5R,11bR)-14-methyl-1,2,3,4,4a,5,6,10-octahydro-5,11b-(epiminoethano)phenanthro[2,3-d]imidazole] | 7.00 to 8.00 | < 5.00 | –
15 | COCCOCCOCCNC(=O)c1ccc2c(c1)[C@@]13CCCC[C@H]1[C@@H](C2)N(C)CC3 [Compound 41, N-{2-[2-(2-methoxyethoxy)ethoxy]ethyl}-17-methylmorphinan-3-carboxamide] | – | < 5.00 | < 6.00
16 | CN1CC[C@]23CCCC[C@H]2[C@H]1Cc1cc2sc(NC(=N)N)nc2cc13 [Compound 84, 1-((4aR,5R,11bR)-14-methyl-2,3,4,4a,5,6-hexahydro-1H-5,11b-(epiminoethano)phenanthro[3,2-d]thiazol-9-yl)guanidine] | – | 5.00 to 6.00 | 6.00 to 7.00
17 | COc1ccc(Nc2ccc3c(c2)[C@@]24CCCC[C@H]2[C@@H](C3)N(C)CC4)cc1 [Compound 28, N-(4-methoxyphenyl)-17-methylmorphinan-3-amine] | 8.00 to 10.00 | 5.00 to 6.00 | –

Row | Compound | pIC50 (mu opioid receptor (MOR)) | pIC50 (NMDA receptor) | pIC50 (mu opioid receptor (MOR); [1])
18 | COCCO[C@@H]1CC[C@H]2[C@H]3Cc4ccc(O)cc4[C@@]2(CCN3C)C1 [Compound 31, (6β)-6-(2-methoxyethoxy)-17-methylmorphinan-3-ol] | 8.00 to 10.00 | 5.00 to 6.00 | –
19 | COCCOCCOCCOCCOCCOCC(=O)Nc1ccc2c(c1)[C@@]13CCCC[C@H]1[C@@H](C2)N(C)CC3 [Compound 42, N-(17-methylmorphinan-3-yl)-2,5,8,11,14,17-hexaoxanonadecan-19-amide] | – | < 5.00 | 6.00 to 7.00
20 | COCCOc1cc(O)cc2c1C[C@@H]1[C@@H]3CCCC[C@]23CCN1C [Compound 74, 1-(2-methoxyethoxy)-17-methylmorphinan-3-ol] | – | < 5.00 | < 6.00
21 | COCCOCCOCCOCCOCCOc1cncc(Nc2ccc3c(c2)[C@@]24CCCC[C@H]2[C@@H](C3)N(C)CC4)c1 [Compound 54, (4bR,8aR,9R)—N-(5-(2,5,8,11,14-pentaoxahexadecan-16-yloxy)pyridin-3-yl)-11-methyl-6,7,8,8a,9,10-hexahydro-5H-9,4b-(epiminoethano)phenanthren-3-amine] | – | < 5.00 | 7.00 to 8.00
22 | CN1CC[C@]23CCCC[C@H]2[C@H]1Cc1ccc(-n2ccnc2)cc13 [Compound 62, 3-(1H-imidazol-1-yl)-17-methylmorphinan] | 7.00 to 8.00 | 6.00 to 7.00 | –
23 | COCCOCCOCCN1CC[C@]23CCCC[C@H]2[C@H]1Cc1ccc(OC)cc13 [Compound 13, 3-methoxy-17-{2-[2-(2-methoxyethoxy)ethoxy]ethyl}-morphinan] | – | < 5.00 | < 6.00
24 | COCCOCCN1CC[C@]23CCCC[C@H]2[C@H]1Cc1ccc(Nc2cncc(F)c2)cc13 [Compound 104, 17-[2-(2-methoxyethoxy)ethyl]-N-(5-fluoro-pyridin-3-yl)morphinan-3-amine] | 7.00 to 8.00 | < 5.00 | –
25 | CN1CC[C@]23CCCC[C@H]2[C@H]1Cc1cc2sc(NC(=O)C4CCN(C(=O)OC(C)(C)C)CC4)nc2cc13 [Compound 85, tert-butyl 4-{[(4aR,5R,11bR)-14-methyl-2,3,4,4a,5,6-hexahydro-1H-5,11b-(epiminoethano)phenanthro[3,2-d][1,3]thiazol-9-yl]carbamoyl}piperidine-1-carboxylate] | – | < 5.00 | < 6.00
26 | COCCOCCn1cc(-c2ccc3c(c2)C24CCCCC2C(C3)N(C)CC4)cn1 (stereo not drawn) [Compound 65, 3-{1-[2-(2-methoxyethoxy)ethyl]-1H-pyrazol-4-yl}-17-methylmorphinan] | – | < 5.00 | < 6.00
27 | CN1CC[C@]23CCCC[C@H]2[C@H]1Cc1ccc(Nc2ccncn2)cc13 [Compound 50, 17-methyl-N-(pyrimidin-4-yl)morphinan-3-amine] | 6.00 to 7.00 | 7.00 to 10.00 | –
28 | COCCOCCN1CC[C@]23CCCC[C@H]2[C@H]1Cc1ccc(Nc2ccnnc2)cc13 [Compound 99, (4bR,8aR,9R)-11-(2-(2-methoxyethoxy)ethyl)-N-(pyridazin-4-yl)-6,7,8,8a,9,10-hexahydro-5H-9,4b-(epiminoethano)phenanthren-3-amine] | – | 5.00 to 6.00 | < 6.00
29 | CN1CC[C@]23CCCC[C@H]2[C@H]1Cc1ccc(Nc2cccnn2)cc13 [Compound 61, 17-methyl-N-(pyridazin-3-yl)morphinan-3-amine] | 6.00 to 7.00 | 5.00 to 6.00 | –
30 | CN1CC[C@]23Cc4nc(N)sc4C[C@H]2[C@H]1Cc1ccc(O)cc13 [Compound 90, (6R,6aR,11aS)-9-amino-14-methyl-6,6a,7,11-tetrahydro-5H-6,11a-(epiminoethano)phenanthro[3,2-d]thiazol-2-ol] | 7.00 to 8.00 | < 5.00 | –
31 | COc1ccc(C(=O)Nc2ccc3c(c2)[C@@]24CCCC[C@H]2[C@@H](C3)N(C)CC4)cc1 [Compound 24, 4-methoxy-N-((4bR,8aR,9R)-11-methyl-6,7,8,8a,9,10-hexahydro-5H-9,4b-(epiminoethano)phenanthren-3-yl)benzamide] | 6.00 to 7.00 | < 5.00 | –
32 | COCCOCCN1CC[C@]23CCCC[C@H]2[C@H]1Cc1ccc(-c2cn[nH]c2)cc13 [Compound 100, (4bR,8aR,9R)-11-(2-(2-methoxyethoxy)ethyl)-3-(1H-pyrazol-4-yl)-6,7,8,8a,9,10-hexahydro-5H-9,4b-(epiminoethano)phenanthrene] | – | 5.00 to 6.00 | < 6.00
33 | COCCOCCOc1cc(Nc2ccc3c(c2)[C@@]24CCCC[C@H]2[C@@H](C3)N(C)CC4)ccn1 [Compound 67, N-{2-[2-(2-methoxyethoxy)ethoxy]pyridin-4-yl}-17-methylmorphinan-3-amine] | – | < 5.00 | 6.00 to 7.00
